In one assay the target is T1, MMP-1 (Homo sapiens, UniProt P03956).
T1 construct: host or cells: transfected HT-1080 cells
T1 sequence (P03956 100-469): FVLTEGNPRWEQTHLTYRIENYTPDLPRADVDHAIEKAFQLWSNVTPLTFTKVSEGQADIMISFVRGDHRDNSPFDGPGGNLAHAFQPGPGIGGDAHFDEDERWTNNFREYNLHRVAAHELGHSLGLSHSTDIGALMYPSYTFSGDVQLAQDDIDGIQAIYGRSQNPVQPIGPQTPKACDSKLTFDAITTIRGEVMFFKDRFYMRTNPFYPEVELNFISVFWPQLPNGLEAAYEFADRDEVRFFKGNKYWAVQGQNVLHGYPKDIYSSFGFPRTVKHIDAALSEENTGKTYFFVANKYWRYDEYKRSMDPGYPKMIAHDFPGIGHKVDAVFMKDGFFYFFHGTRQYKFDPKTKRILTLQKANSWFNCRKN
Description: In vitro metalloprotease inhibition, fluorogenic MCA peptide substrate. The format is biochemical. Particulars: recombinant human enzyme, APMA-activated, room temperature, pH 7.5.

The target in another assay is T2, MMP-13 (Homo sapiens, UniProt P45452).
T2 construct: made in house; host or cells: baculovirus / insect cells
The assay is described as above. It counts as biochemical. Particulars: APMA-activated, room temperature, pH 7.5.

[1] abbreviates: recombinant human enzyme, read-out: MMP-13 IC50.
Where [2] appears, read: MMP-13 IC50, recombinant human enzyme.

Molecules are shown by their SMILES. Several values for one entry are separate records, joined by “and”; a condition that tells them apart may be missing. Identical values can stand only once. Like-named read-outs stand apart in the source and are kept apart here.

The text below walks through data of patent publication US6583299B1, “α-amino-β-sulfonyl hydroxamic acid compounds” (priority 1999, dated 2003).

Description for MMP-13: Briefly, 4-aminophenylmercuric acetate (APMA) or trypsin-activated MMPs were incubated with various concentrations of the inhibitor compound at room temperature for 5 minutes.
The expressed enzyme was purified first over a heparin agarose column and then over a chelating zinc chloride column. The proenzyme was activated by APMA for use in the assay.
The enzyme substrate is a methoxycoumarin-containing polypeptide having the following sequence:
MCA-ProLeuGlyLeuDpaAlaArgNH2, wherein MCA is methoxycoumarin and Dpa is 3-(2,4-dinitrophenyl)-L-2,3-diaminopropionyl alanine.
The assayed inhibitor compound in DMSO/buffer solution was compared to an equal amount of DMSO/buffer with no inhibitor as control using Microfluor™ White Plates (Dynatech). The inhibitor or control solution was maintained in the plate for 10 minutes and the substrate was added to provide a final concentration of 4 μM.
Inhibition was measured as a reduction in fluorescent intensity as a function of inhibitor concentration, using a Perkin Elmer L550 plate reader. The IC50 values were calculated from those values.

One may read the IC50 as the midpoint of a concentration-inhibition curve. Consider `COc1ccc(S(=O)(=O)CC(NC(C)=O)C(=O)NO)cc1` (centres unmarked) [Example 1, N-Hydroxy-3-[(4-methoxyphenyl)sulfonyl]-2-[(methylcarbonyl)amino]propanamide], for which the concentration for half-maximal inhibition (IC50) at MMP-1 came out at 300 nM; on MMP-13 (setting [1]) it was 15 nM.
For `COc1ccc(S(=O)(=O)CC(NC(=O)NC(C)(C)C)C(=O)NO)cc1` (centres unmarked) [Example 2, 2-[[[(1,1-Dimethylethyl)amino]carbonyl]amino]-N-hydroxy-3-[(4-methoxyphenyl)sulfonyl]propanamide], in that order: 1500 nM and 15 nM.
For `COc1ccc(S(=O)(=O)CC(NC(=O)CNC(=O)OCc2ccccc2)C(=O)NO)cc1` (centres unmarked) [Example 6, Phenylmethyl-[2-[[2-(hydroxyamino)-2-oxo-1-[[[4-methoxyphenyl]sulfonyl]methyl]ethyl]amino]-2-oxoethyl]carbamate], in that order: 40 nM and less than 1 nM.
The like results for `CC(=O)N[C@@H](CS(=O)(=O)c1ccc(Oc2ccccc2)cc1)C(=O)NO` [Example 9g, N^2-Acetyl-N^1-hydroxyl-3-[(4-phenoxyphenyl)sulphonyl]alaninamide] were, in that order, 770 nM and 1.1 nM.
With `CC(C)(C)C(=O)NC(CS(=O)(=O)c1ccc(Oc2ccccc2)cc1)C(=O)NO` (centres unmarked) [Example 10d], the results for the half-maximal inhibitory concentration (IC50) on MMP-1 and on MMP-13 (setting [1]) were 1600 nM and 2.7 nM, respectively.
As to `CCCCC(=O)NC(CS(=O)(=O)c1ccc(Sc2ccccc2)cc1)C(=O)NO` (centres unmarked) [Example 11g, N-[1-[(Hydroxyamino)carbonyl]-2-[[4-(phenylthio)phenyl]sulfonyl]ethyl]pentanamide], on MMP-13 (setting [1]), the IC50 amounted to 6 nM.
Regarding `O=C(NC(CS(=O)(=O)c1ccc(Sc2ccccc2)cc1)C(=O)NO)OCc1ccccc1` (centres unmarked) [Example 14c, Phenylmethyl-[2-(hydroxyamino)-2-oxo-1-[[[4-(phenylthio)-phenyl]sulfonyl]methyl]ethyl]carbamate], the values for the IC50 at MMP-1 and at MMP-13 (setting [1]) were greater than 10000 nM and 3.7 nM, respectively.
The like results for `O=C(CNC(=O)OCc1ccccc1)NC(CS(=O)(=O)c1ccc(Sc2ccccc2)cc1)C(=O)NO` (centres unmarked) [Example 16c, Phenylmethyl-[2-[[2-(hydroxyamino)-2-oxo-1-[[[4-(phenylthio)-phenyl]sulfonyl]methyl]ethyl]amino]-2-oxoethyl]carbamate] were, in that order, greater than 10000 nM and 0.8 nM.
For `Cc1ccc(S(=O)(=O)NC(CS(=O)(=O)c2ccc(Sc3ccccc3)cc2)C(=O)NO)cc1` (centres unmarked) [Example 17c], in that order: 600 nM and 0.4 nM.
For `NC(CS(=O)(=O)c1ccc(Sc2ccccc2)cc1)C(=O)NO` (centres unmarked) [Example 18a], in that order: greater than 10000 nM and 24 nM.
`C[C@H](NC(=O)OCc1ccccc1)C(=O)NC(CS(=O)(=O)c1ccc(Sc2ccccc2)cc1)C(=O)NO` (some centres unmarked) [Example 19a]: the IC50 at MMP-1 was greater than 10000 nM; on MMP-13 (setting [1]), 0.8 nM.
Take `CC(C)(C)NC(=O)NC(CS(=O)(=O)c1ccc(Sc2ccccc2)cc1)C(=O)NO` (centres unmarked) [Example 20b]: the IC50 is greater than 10000 nM at MMP-1 and 4 nM on MMP-13 (setting [1]).
For `COc1ccc(S(=O)(=O)CC(NS(C)(=O)=O)C(=O)NO)cc1` (centres unmarked) [Example 21], in that order: 300 nM and 15 nM.
The like results for `O=C(NC(CS(=O)(=O)c1ccc(Sc2ccccc2)cc1)C(=O)NO)c1ccco1` (centres unmarked) [Example 27] were, in that order, greater than 10000 nM and 14 nM.
For `O=C(NC(CS(=O)(=O)c1ccc(Sc2ccccc2)cc1)C(=O)NO)c1cccnc1` (centres unmarked) [Example 29], in that order: greater than 10000 nM and 7 nM.
As for `O=C(N[C@@H](CS(=O)(=O)c1ccc(Sc2ccccc2)cc1)C(=O)NO)OCc1ccccc1` [Example 32], the 50% inhibitory concentration (IC50) came to 8000 nM at MMP-1 and 0.4 nM on MMP-13 (setting [1]).
With `O=C(NC(CS(=O)(=O)c1ccc(Sc2ccccc2)cc1)C(=O)NO)c1ccccc1` (centres unmarked) [Example 34], the half-inhibitory concentration (IC50) on MMP-1 is greater than 10000 nM; at MMP-13 (setting [1]), 5 nM.
The like results for `O=C(NC(CS(=O)(=O)c1ccc(Sc2ccccc2)cc1)C(=O)NO)c1ccccc1-c1ccccc1` (centres unmarked) [Example 35] were, in that order, 3000 nM and 0.2 nM.
The like results for `O=C(NC(CS(=O)(=O)c1ccc(Sc2ccccc2)cc1)C(=O)NO)c1cccc2ccccc12` (centres unmarked) [Example 36] were, in that order, greater than 10000 nM and 2.5 nM.
Turning to `CC(N)(CS(=O)(=O)c1ccc(Oc2ccccc2)cc1)C(=O)NO` (centres unmarked) [Example 38], the IC50 was 170 nM at MMP-1 and 0.5 nM on MMP-13 (setting [2]).
For the molecule `CC(N)(CS(=O)(=O)c1ccc(Oc2ccccc2)cc1)C(=O)NO` (centres unmarked) [Example 39], the IC50 on MMP-1 is 114 nM and 225 nM; at MMP-13 (setting [2]), 0.3 nM and 1.1 nM.
On to `CC(C)(C)NC(=O)NC(CS(=O)(=O)c1ccc(Sc2ccccc2)cc1)C(=O)NO` (centres unmarked) [Example 45], for which the 50% inhibitory concentration (IC50) on MMP-13 (setting [1]) came to 5 nM.
The same measure, in the same setting: to `CC(CS(=O)(=O)c1ccc(Oc2ccccc2)cc1)(NC(=O)CN1CCCC1)C(=O)NO` (centres unmarked) [Example 49] belongs 160 nM; to `CN(C)C(C)(CS(=O)(=O)c1ccc(Oc2ccccc2)cc1)C(=O)NO` (centres unmarked) [Example 52], 24 nM.
Regarding `CCNC(C)(CS(=O)(=O)c1ccc(Oc2ccccc2)cc1)C(=O)NO` (centres unmarked) [Example 55], the concentration for half-maximal inhibition (IC50) on MMP-1 turned out to be 1600 nM; on MMP-13 (setting [1]), 1.6 nM.
As for `CC(CS(=O)(=O)c1ccc(Oc2ccccc2)cc1)(NCc1ccccc1)C(=O)NO` (centres unmarked) [Example 56], the IC50 at MMP-13 (setting [1]) came out at 0.3 nM.
`CC(=O)NC(C)(CS(=O)(=O)c1ccc(Sc2ccccc2)cc1)C(=O)NO` (centres unmarked) [Example 57]: at MMP-13 (setting [1]), the IC50 turned out to be 580 nM.
In the case of `CC(N)(CS(=O)(=O)c1ccc(Sc2ccccc2)cc1)C(=O)NO` (centres unmarked) [Example 58], the concentration for half-maximal inhibition (IC50) came out at 4400 nM at MMP-1 and 2.4 nM on MMP-13 (setting [1]).
Turning to `O=C(NC(CS(=O)(=O)c1ccc(Oc2ccccc2)cc1)(C(=O)NO)c1ccccc1)c1ccccc1` (centres unmarked) [Example 65], on MMP-13 (setting [1]), the IC50 amounted to 161 nM.
Same read-out and setting: with `CC(CS(=O)(=O)c1ccc(Oc2ccccc2)cc1)(NCc1ccc2c(c1)OCO2)C(=O)NO` (centres unmarked) [Example 66] the figure was 1.1 nM.
Regarding `CC(CS(=O)(=O)c1ccc(Oc2ccccc2)cc1)(NCCc1ccccc1)C(=O)NO` (centres unmarked) [Example 67], the results for the half-maximal inhibitory concentration (IC50) at MMP-1 and at MMP-13 (setting [1]) were 2400 nM and 2.4 nM, respectively.
On to `CC(CS(=O)(=O)c1ccc(Oc2ccccc2)cc1)(NCc1ccc2ccccc2c1)C(=O)NO` (centres unmarked) [Example 68], for which the concentration for half-maximal inhibition (IC50) on MMP-13 (setting [1]) was found to be 1.4 nM.
On to `C#CCNC(C)(CS(=O)(=O)c1ccc(Oc2ccccc2)cc1)C(=O)NO` (centres unmarked) [Example 69], for which the 50% inhibitory concentration (IC50) on MMP-1 was determined as 700 nM; on MMP-13 (setting [1]), 0.6 nM.
For `NC(CS(=O)(=O)c1ccc(Oc2ccccc2)cc1)(C(=O)NO)c1ccccc1` (centres unmarked) [Example 70], in that order: 130 nM and 0.4 nM.
